The record followed here is US20110212466A1, “Thiol-Modified Surface Immobilization Article And Method” (priority 2009, published 2011).

This assay deals with carbonic anhydrase (CAII). Kind of assay: furosemide binding on immobilized CAII, Epic biosensor (Example 3). Conditions: cystine in combination with glycine. As for the experimental part: Step 3. Binding of protein inhibitor: The plate was equilibrated at ambient (25° C.) temperature for about 30 min before rinsing with PBS (on Biomek, following standard rinsing protocol). The plate was centrifuged and soaked in 0.1% DMSO in PBS for about 4 h at ambient temperature.
The plate was then read in the Epic® instrument for 20 min.

Consider `NS(=O)(=O)c1cc(C(=O)O)c(NCc2ccco2)cc1Cl` [furosemide], for which the binding result is given as “over 10 pm”.
